Test [1] relates to Saccharomyces cerevisiae. Briefly: Inhibition of Saccharomyces cerevisiae alpha-glucosidase at 100 uM using pNPG as substrate preincubated for 10 mins followed by substrate addition and measured for 35 mins by microplate photometric method. The following applies: time 45.0 min.
Test [2] deals with T1, Tyrosine-protein phosphatase non-receptor type 1 (Homo sapiens, UniProt P18031).
T1 sequence (P18031 whole entry): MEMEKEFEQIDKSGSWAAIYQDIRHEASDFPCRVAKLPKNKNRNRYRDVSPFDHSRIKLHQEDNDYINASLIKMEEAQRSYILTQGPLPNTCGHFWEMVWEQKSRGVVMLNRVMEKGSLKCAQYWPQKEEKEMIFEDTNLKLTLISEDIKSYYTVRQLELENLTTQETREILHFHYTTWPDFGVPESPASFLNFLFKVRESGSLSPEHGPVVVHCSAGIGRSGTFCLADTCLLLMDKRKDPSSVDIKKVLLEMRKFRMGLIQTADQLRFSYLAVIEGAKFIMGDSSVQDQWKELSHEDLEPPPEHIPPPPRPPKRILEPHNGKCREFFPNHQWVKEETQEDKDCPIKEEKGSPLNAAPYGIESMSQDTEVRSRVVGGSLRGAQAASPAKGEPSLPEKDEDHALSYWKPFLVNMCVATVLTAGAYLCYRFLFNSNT
Kind of test: Inhibition of human recombinant PTP1B (1 to 322 residues) expressed in Escherichia coli using pNPP as substrate preincubated with substrate for 10 mins followed by enzyme addition and measured for 10 mins by absorbance based analysis.

The nature of test [3]: Inhibition of Saccharomyces cerevisiae alpha-glucosidase using pNPG as substrate preincubated for 10 mins followed by substrate addition and measured for 35 mins by microplate photometric method.

In ChEMBL document CHEMBL4831521, “Dual High-Resolution α-Glucosidase and PTP1B Inhibition Profiling Combined with HPLC-PDA-HRMS-SPE-NMR Analysis for the Identification of Potentially Antidiabetic Chromene Meroterpenoids from Rhododendron capitatum” (J Nat Prod, 2021) one finds inhibition and IC50 data, which are given here for 16 compounds.

pIC50: −log10 of the molar value.

In the case of `CO[C@](C)(CCC=C(C)C)[C@H](O)CC[C@]1(C)C=Cc2c(cc(C)c(C(=O)O)c2O)O1` (mixture of isomers), the inhibition – broadly, the change of the read-out against control, counted positive when it falls – in test [1] stood at 15.6%. Turning to `C=C(C)[C@H](O)CC/C(C)=C/CC[C@]1(C)C=Cc2c(cc(C)c(C(=O)O)c2O)O1`, in test [1], the inhibition amounted to 99.6%. In addition, the negative logarithm of the IC50 (pIC50) (in general, the IC50 on a negative log10 scale, so that one unit is a factor of ten) in test [2] was 4.99; in test [3], 4.67.

Regarding `C=C(C/C=C/C(C)(C)O)[C@H](O)CC[C@]1(C)C=Cc2c(cc(C)c(C(=O)O)c2O)O1`, in test [1], the inhibition amounted to 36.9%. In addition, the pIC50 in test [2] was 4.55. For `Cc1c(O)cc(O)c2c1O[C@H](c1ccc(O)cc1)CC2=O`, the inhibition in test [1] was 14.4%. Still for that read-out and setting: as for `CC(C)=CCC[C@@](C)(O)[C@H](O)CC[C@]1(C)C=Cc2c(cc(C)c(C(=O)O)c2O)O1` (relative stereo), the figure is -1.8%. For the compound `CC(C)=CCC/C(C)=C/CC[C@]1(C)C=Cc2c(cc(C)c(C(=O)O)c2O)O1`, the inhibition in test [1] was 99.9%. Moreover, the pIC50 was 5.60 in test [2] and 4.97 in test [3]. Take `C=C(CCC=C(C)C)[C@H](O)CC[C@]1(C)C=Cc2c(cc(C)c(C(=O)O)c2O)O1`: the inhibition in test [1] is 99.8%. Further, the pIC50 is 5.22 in test [2] and 4.73 in test [3].

Turning to `CC(C)=CCC[C@](C)(O)[C@H](O)CC[C@]1(C)C=Cc2c(cc(C)c(C(=O)O)c2O)O1` (mixture of isomers), in test [1], the inhibition is -1.8%. With `CC(C)=CCC/C(C)=C/CC/C(C)=C/Cc1c(O)cc(C)c(C(=O)O)c1O` [GRIFOLIC ACID], in test [1], the inhibition came out at 99.7%. Besides, the pIC50 in test [2] is 5.44; in test [3], 5.10. With `C/C(=C\CC[C@]1(C)C=Cc2c(cc(C)c(C(=O)O)c2O)O1)C/C=C\C(C)(C)O`, the pIC50 in test [2] was 4.17. With `COC(C)(C)[C@H](O)CC/C(C)=C/CC[C@]1(C)C=Cc2c(cc(C)c(C(=O)O)c2O)O1`, the inhibition in test [1] stood at 17.2%. For `C[C@H]1O[C@H](O[C@H]2[C@H](O)[C@@H](O)[C@@H](O[C@H]3[C@H](O)[C@@H](O)C(O)O[C@@H]3CO)O[C@@H]2CO)[C@H](O)[C@@H](O)[C@@H]1N[C@H]1C=C(CO)[C@@H](O)[C@H](O)[C@H]1O` (some centres undefined) [ACARBOSE], the pIC50 in test [3] is 3.10. `CO[C@@](C)(CCC=C(C)C)[C@H](O)CC[C@]1(C)C=Cc2c(cc(C)c(C(=O)O)c2O)O1` (relative stereo): the inhibition in test [1] turned out to be 23.8%. For the same compound, in test [2], the negative-log IC50 (pIC50) was 4.27. With `Cc1c(O)c(C)c2c(c1O)C(=O)C[C@@H](c1ccc(O)cc1)O2`, the inhibition in test [1] was found to be 11.2%. Consider `C=C(C)/C=C/C/C(C)=C/CC[C@]1(C)C=Cc2c(cc(C)c(C(=O)O)c2O)O1`, for which, in test [1], the inhibition is 27.5%. Besides, the pIC50 in test [2] is 4.70. In the case of `C=C(C)[C@H](O)CCC(=C)[C@H](O)CC[C@]1(C)C=Cc2c(cc(C)c(C(=O)O)c2O)O1`, the inhibition in test [1] came to 63.5%. Moreover, the negative logarithm of the IC50 (pIC50) in test [2] was 4.44; in test [3], 4.03.
